How the values were obtained:
[1] = biological target: T1, RPS6KA4(Kin.Dom.1-N-terminal) (Homo sapiens, UniProt O75676); test: KinomeScan; type: binding; conditions: 1uM
T1 construct: RPS6KA4(Kin.Dom.1-N-terminal); purchased DiscoveRx KINOMEscan

EPHA8 = biological target: T2, EPHA8 (Homo sapiens, UniProt P29322); test: KinomeScan; type: binding; conditions: 1uM
T2 construct: purchased DiscoveRx KINOMEscan

MAP3K2 = biological target: T3, MAP3K2 (Homo sapiens, UniProt Q9Y2U5); test: KinomeScan; type: binding; conditions: 1uM
T3 construct: purchased DiscoveRx KINOMEscan

MYLK4 = biological target: T4, MYLK4 (Homo sapiens, UniProt Q86YV6); test: KinomeScan; type: binding; conditions: 1uM
T4 construct: purchased DiscoveRx KINOMEscan

[2] = biological target: T5, ABL1(F317I)-phosphorylated (Homo sapiens, UniProt P00519, F317I); test: KinomeScan; type: binding; conditions: 1uM
T5 construct: purchased DiscoveRx KINOMEscan

FLT3(N841I) = biological target: T6, FLT3(N841I) (Homo sapiens, UniProt P36888, N841I); test: KinomeScan; type: binding; conditions: 1uM
T6 construct: purchased DiscoveRx KINOMEscan

[3] = biological target: T7, ABL1(M351T)-phosphorylated (Homo sapiens, UniProt P00519, M351T); test: KinomeScan; type: binding; conditions: 1uM
T7 construct: purchased DiscoveRx KINOMEscan

[4] = biological target: T8, ABL1(Q252H)-nonphosphorylated (Homo sapiens, UniProt P00519, Q252H); test: KinomeScan; type: binding; conditions: 1uM
T8 construct: purchased DiscoveRx KINOMEscan

KIT(A829P) = biological target: T9, KIT(A829P) (Homo sapiens, UniProt P10721, A829P); test: KinomeScan; type: binding; conditions: 1uM
T9 construct: purchased DiscoveRx KINOMEscan

MAP3K15 = biological target: T10, MAP3K15 (Homo sapiens, UniProt Q6ZN16); test: KinomeScan; type: binding; conditions: 1uM
T10 construct: purchased DiscoveRx KINOMEscan

PIK3CB = biological target: T11, PIK3CB (Homo sapiens, UniProt P42338); test: KinomeScan; type: binding; conditions: 1uM
T11 construct: purchased DiscoveRx KINOMEscan

CIT = biological target: T12, CIT (Homo sapiens, UniProt O14578); test: KinomeScan; type: binding; conditions: 1uM
T12 construct: purchased DiscoveRx KINOMEscan

LATS1 = biological target: T13, LATS1 (Homo sapiens, UniProt O95835); test: KinomeScan; type: binding; conditions: 1uM
T13 construct: purchased DiscoveRx KINOMEscan

PRKCE = biological target: T14, PRKCE (Homo sapiens, UniProt Q02156); test: KinomeScan; type: binding; conditions: 1uM
T14 construct: purchased DiscoveRx KINOMEscan

CSNK2A2 = biological target: T15, CSNK2A2 (Homo sapiens, UniProt P19784); test: KinomeScan; type: binding; conditions: 1uM
T15 construct: purchased DiscoveRx KINOMEscan

MOLM-14 = test: Anti-proliferative assay; type: cell-based; conditions: Homo sapiens; MOLM-14, AML-M5; 72 hours, CellTiter-Glo
Method: (§1) Cells were grown in 96-well culture plates (3000-4000/well). […] Cell proliferation was determined after treatment with compounds for 72 hours. Cell viability was measured using the CellTiter–Glo Assay Kit (Promega, USA), according to the manufacturer's instructions, and luminescence was measured in a multi-label reader (Envision, PerkinElmer, USA). Data were normalized to control groups (DMSO) and represented by the mean of three independent measurements with standard error <20%. GI50 values were calculated using Prism 5.0 (GraphPad Software, San Diego, CA).

Namalwa = test: Anti-proliferative assay; type: cell-based; conditions: Homo sapiens, Burrkit lymphoma, 72 hours, CellTiter-Glo
Method: as §1

PF382 = test: Anti-proliferative assay; type: cell-based; conditions: Homo sapiens, PF-382; PF382, ALL; 72 hours, CellTiter-Glo
Method: as §1

HEL = test: Anti-proliferative assay; type: cell-based; conditions: Homo sapiens, AML-M6, 72 hours, CellTiter-Glo
Method: as §1

CDK2 = biological target: T16, CDK2 (Homo sapiens, UniProt P24941); test: KinomeScan; type: binding; conditions: 1uM
T16 construct: purchased DiscoveRx KINOMEscan

EPHB4 = biological target: T17, EPHB4 (Homo sapiens, UniProt P54760); test: KinomeScan; type: binding; conditions: 1uM
T17 construct: purchased DiscoveRx KINOMEscan

ACVR1B = biological target: T18, ACVR1B (Homo sapiens, UniProt P36896); test: KinomeScan; type: binding; conditions: 1uM
T18 construct: purchased DiscoveRx KINOMEscan

ACVR2B = biological target: T19, ACVR2B (Homo sapiens, UniProt Q13705); test: KinomeScan; type: binding; conditions: 1uM
T19 construct: purchased DiscoveRx KINOMEscan

PRP4 = biological target: T20, PRP4 (Homo sapiens, UniProt Q13523); test: KinomeScan; type: binding; conditions: 1uM
T20 construct: purchased DiscoveRx KINOMEscan

HIPK2 = biological target: T21, HIPK2 (Homo sapiens, UniProt Q9H2X6); test: KinomeScan; type: binding; conditions: 1uM
T21 construct: purchased DiscoveRx KINOMEscan

YSK4 = biological target: T22, YSK4 (Homo sapiens, UniProt Q56UN5); test: KinomeScan; type: binding; conditions: 1uM
T22 construct: purchased DiscoveRx KINOMEscan

CSF1R = biological target: T23, CSF1R (Homo sapiens, UniProt P07333); test: KinomeScan; type: binding; conditions: 1uM
T23 construct: purchased DiscoveRx KINOMEscan

EGFR(L858R) = biological target: T24, EGFR(L858R) (Homo sapiens, UniProt P00533, L858R); test: KinomeScan; type: binding; conditions: 1uM
T24 construct: purchased DiscoveRx KINOMEscan

CSNK1G3 = biological target: T25, CSNK1G3 (Homo sapiens, UniProt Q9Y6M4); test: KinomeScan; type: binding; conditions: 1uM
T25 construct: purchased DiscoveRx KINOMEscan

[5] = biological target: T26, JAK2(JH1domain-catalytic) (Homo sapiens, UniProt O60674); test: KinomeScan; type: binding; conditions: 1uM
T26 construct: JAK2(JH1domain-catalytic); purchased DiscoveRx KINOMEscan

AKT2 = biological target: T27, AKT2 (Homo sapiens, UniProt P31751); test: KinomeScan; type: binding; conditions: 1uM
T27 construct: purchased DiscoveRx KINOMEscan

PARP cleavage = test: Apoptosis (western-blot); type: cell-based, human; conditions: within 12 hours
Description: Then, apoptosis of MOLM13, HT, MEC-1 cells were detected by western-blot using PARP, GAPDH antibody (CST).

BIKE = biological target: T28, BIKE (Homo sapiens, UniProt Q9NSY1); test: KinomeScan; type: binding; conditions: 1uM
T28 construct: purchased DiscoveRx KINOMEscan

KIT(V559D,V654A) = biological target: T29, KIT(V559D,V654A) (Homo sapiens, UniProt P10721, V559D/V654A); test: KinomeScan; type: binding; conditions: 1uM
T29 construct: purchased DiscoveRx KINOMEscan

p38-alpha = biological target: T30, p38-alpha (Homo sapiens, UniProt Q16539); test: KinomeScan; type: binding; conditions: 1uM
T30 construct: purchased DiscoveRx KINOMEscan

TAOK3 = biological target: T31, TAOK3 (Homo sapiens, UniProt Q9H2K8); test: KinomeScan; type: binding; conditions: 1uM
T31 construct: purchased DiscoveRx KINOMEscan

BTK = biological target: T32, BTK (Homo sapiens, UniProt Q06187); test: KinomeScan; type: binding; conditions: 1uM
T32 construct: purchased DiscoveRx KINOMEscan

[6] = biological target: T33, ABL1(F317L)-nonphosphorylated (Homo sapiens, UniProt P00519, F317L); test: KinomeScan; type: binding; conditions: 1uM
T33 construct: purchased DiscoveRx KINOMEscan

T15 sequence (P19784 whole entry): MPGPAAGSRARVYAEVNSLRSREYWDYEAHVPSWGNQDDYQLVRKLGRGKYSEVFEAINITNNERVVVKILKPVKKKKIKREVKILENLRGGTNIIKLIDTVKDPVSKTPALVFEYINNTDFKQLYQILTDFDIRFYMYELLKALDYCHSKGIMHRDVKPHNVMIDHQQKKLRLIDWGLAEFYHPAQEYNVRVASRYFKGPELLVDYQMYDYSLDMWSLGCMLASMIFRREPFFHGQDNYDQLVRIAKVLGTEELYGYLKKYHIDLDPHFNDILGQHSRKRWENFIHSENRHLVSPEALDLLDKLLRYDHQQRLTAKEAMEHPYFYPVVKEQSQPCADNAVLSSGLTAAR
T26 sequence (O60674 849-1132 limits assumed): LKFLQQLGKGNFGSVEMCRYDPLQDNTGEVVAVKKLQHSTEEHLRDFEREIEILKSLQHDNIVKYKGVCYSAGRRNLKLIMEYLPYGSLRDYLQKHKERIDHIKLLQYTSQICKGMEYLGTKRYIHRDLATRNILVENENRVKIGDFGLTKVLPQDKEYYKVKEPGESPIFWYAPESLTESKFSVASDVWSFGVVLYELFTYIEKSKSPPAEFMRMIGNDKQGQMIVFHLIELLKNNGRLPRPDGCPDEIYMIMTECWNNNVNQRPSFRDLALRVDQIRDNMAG
T11 sequence (P42338 whole entry): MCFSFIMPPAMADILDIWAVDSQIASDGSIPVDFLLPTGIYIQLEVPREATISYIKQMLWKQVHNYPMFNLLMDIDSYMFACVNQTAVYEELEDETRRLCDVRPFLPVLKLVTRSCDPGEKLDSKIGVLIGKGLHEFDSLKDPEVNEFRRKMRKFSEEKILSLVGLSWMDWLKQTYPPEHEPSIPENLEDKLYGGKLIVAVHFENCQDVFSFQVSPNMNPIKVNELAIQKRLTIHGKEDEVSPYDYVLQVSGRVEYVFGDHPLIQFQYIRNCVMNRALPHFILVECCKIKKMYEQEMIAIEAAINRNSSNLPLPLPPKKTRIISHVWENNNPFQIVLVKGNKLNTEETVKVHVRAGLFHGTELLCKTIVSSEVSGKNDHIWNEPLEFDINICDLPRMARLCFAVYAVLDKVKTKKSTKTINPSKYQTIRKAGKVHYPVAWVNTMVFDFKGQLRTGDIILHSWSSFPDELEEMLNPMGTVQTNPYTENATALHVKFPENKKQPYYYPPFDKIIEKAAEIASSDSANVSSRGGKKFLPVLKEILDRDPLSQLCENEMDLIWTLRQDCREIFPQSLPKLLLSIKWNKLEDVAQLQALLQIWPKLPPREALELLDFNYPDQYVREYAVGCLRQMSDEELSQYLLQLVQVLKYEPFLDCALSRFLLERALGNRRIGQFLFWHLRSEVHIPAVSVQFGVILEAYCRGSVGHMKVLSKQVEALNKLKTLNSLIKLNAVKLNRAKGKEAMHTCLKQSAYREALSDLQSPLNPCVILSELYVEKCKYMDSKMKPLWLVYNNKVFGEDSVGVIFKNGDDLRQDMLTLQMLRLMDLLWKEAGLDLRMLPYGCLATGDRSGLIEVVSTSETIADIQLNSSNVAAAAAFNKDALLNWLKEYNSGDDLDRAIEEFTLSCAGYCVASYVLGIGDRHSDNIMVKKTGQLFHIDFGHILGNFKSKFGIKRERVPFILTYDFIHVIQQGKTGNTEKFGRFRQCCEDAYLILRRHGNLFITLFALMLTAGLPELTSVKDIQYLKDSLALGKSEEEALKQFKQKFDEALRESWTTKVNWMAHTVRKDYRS
T28 sequence (Q9NSY1 whole entry): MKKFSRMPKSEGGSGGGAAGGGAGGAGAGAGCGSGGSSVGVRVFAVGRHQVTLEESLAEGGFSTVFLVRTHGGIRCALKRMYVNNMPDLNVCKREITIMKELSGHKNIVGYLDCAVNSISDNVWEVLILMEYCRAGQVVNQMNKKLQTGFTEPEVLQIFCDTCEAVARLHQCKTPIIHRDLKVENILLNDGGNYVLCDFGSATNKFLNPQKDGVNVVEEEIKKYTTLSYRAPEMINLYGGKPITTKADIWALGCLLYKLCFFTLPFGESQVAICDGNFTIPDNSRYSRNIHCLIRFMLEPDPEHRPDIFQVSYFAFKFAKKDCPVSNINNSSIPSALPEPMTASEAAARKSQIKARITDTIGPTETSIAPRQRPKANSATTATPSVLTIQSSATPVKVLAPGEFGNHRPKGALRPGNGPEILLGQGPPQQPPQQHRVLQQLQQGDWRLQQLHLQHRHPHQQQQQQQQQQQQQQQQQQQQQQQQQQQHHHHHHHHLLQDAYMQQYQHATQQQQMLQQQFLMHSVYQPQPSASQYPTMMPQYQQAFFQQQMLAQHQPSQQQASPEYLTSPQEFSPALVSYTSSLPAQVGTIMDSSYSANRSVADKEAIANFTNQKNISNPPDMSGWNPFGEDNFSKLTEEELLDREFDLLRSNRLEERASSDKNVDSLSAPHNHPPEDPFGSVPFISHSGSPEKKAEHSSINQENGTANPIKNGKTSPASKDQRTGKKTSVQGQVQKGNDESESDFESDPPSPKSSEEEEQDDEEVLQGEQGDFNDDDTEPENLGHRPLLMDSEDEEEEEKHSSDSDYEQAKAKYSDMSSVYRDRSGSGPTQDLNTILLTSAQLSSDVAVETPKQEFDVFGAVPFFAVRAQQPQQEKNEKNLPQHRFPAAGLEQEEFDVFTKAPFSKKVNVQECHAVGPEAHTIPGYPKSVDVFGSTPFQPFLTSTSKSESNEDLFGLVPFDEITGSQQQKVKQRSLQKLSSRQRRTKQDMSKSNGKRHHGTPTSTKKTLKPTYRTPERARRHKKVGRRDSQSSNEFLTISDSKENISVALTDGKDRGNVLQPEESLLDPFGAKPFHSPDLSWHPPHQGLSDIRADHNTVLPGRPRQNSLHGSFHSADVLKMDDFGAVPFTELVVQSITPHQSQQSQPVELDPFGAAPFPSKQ
T10 sequence (Q6ZN16 whole entry): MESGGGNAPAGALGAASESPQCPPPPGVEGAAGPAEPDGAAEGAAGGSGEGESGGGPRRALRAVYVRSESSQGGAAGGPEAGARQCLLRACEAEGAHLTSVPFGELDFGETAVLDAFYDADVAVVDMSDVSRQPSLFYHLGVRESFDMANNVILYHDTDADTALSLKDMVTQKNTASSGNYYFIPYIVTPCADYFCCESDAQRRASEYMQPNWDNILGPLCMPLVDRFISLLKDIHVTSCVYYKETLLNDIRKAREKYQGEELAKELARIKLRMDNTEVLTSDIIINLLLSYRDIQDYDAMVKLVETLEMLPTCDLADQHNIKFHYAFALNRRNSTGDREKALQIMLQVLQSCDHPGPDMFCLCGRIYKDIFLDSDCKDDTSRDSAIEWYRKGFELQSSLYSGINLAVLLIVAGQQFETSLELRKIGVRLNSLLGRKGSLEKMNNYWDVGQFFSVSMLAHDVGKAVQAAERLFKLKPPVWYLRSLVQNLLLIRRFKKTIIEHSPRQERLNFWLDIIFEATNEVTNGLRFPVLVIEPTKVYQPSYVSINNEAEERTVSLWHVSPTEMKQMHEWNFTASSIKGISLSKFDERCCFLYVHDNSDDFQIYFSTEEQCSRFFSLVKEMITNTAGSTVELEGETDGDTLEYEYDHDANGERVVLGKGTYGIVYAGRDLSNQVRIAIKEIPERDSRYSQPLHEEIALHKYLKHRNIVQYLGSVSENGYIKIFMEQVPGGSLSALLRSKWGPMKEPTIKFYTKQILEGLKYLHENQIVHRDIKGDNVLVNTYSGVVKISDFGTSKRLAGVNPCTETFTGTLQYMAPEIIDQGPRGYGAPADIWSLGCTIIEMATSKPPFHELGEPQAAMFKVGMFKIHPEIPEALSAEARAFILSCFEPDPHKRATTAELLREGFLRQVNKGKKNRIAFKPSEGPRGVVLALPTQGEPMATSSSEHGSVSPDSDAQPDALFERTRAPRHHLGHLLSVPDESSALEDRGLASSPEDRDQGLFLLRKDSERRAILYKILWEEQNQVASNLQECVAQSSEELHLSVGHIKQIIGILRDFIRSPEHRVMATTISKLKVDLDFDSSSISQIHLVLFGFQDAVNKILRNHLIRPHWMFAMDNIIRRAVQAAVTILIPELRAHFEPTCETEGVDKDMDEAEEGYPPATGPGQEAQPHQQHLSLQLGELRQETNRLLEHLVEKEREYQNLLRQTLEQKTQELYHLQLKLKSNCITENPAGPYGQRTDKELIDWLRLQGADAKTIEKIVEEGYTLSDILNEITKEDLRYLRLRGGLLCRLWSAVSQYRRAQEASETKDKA
T31 sequence (Q9H2K8 whole entry): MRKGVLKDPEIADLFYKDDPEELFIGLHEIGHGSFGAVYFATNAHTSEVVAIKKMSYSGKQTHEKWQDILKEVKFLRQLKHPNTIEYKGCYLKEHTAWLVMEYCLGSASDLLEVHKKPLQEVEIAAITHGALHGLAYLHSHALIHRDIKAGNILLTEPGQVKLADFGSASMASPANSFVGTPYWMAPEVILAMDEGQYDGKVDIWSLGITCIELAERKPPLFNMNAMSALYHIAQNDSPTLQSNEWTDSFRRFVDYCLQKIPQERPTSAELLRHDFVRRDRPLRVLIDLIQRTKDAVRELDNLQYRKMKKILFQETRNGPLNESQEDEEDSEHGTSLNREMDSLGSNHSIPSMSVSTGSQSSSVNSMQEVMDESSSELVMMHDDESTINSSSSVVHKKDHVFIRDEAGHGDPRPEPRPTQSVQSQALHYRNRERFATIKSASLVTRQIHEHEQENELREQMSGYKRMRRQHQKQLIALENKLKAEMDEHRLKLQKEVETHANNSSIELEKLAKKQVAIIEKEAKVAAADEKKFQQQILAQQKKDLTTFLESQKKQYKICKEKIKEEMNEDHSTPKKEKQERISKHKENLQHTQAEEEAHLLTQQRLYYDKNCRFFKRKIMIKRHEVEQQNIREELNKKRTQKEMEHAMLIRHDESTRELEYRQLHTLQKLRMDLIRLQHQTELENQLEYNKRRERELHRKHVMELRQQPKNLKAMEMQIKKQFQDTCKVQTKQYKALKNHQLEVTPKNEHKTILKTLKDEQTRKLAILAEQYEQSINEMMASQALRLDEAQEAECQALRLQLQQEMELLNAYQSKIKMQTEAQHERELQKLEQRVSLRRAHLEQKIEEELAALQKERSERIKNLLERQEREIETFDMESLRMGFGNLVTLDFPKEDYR

## Cc1nc(NC(=O)[C@@H](N)C(C)C)sc1-c1cnc(Cl)c(NS(=O)(=O)c2ccccc2)c1 [PI3KD-IN-015]
[1]
  KinomeScan RPS6KA4(Kin.Dom.1-N-terminal): 86
EPHA8
  KinomeScan EPHA8: 100
MAP3K2
  KinomeScan MAP3K2: 100
MYLK4
  KinomeScan MYLK4: 80
[2]
  KinomeScan ABL1(F317I)-phosphorylated: 89
FLT3(N841I)
  KinomeScan FLT3(N841I): 87
[3]
  KinomeScan ABL1(M351T)-phosphorylated: 98
[4]
  KinomeScan ABL1(Q252H)-nonphosphorylated: 100
KIT(A829P)
  KinomeScan KIT(A829P): 96
MAP3K15
  KinomeScan MAP3K15: 80
PIK3CB
  KinomeScan PIK3CB: 0
CIT
  KinomeScan CIT: 100
LATS1
  KinomeScan LATS1: 98
PRKCE
  KinomeScan PRKCE: 100
CSNK2A2
  KinomeScan CSNK2A2: 39
MOLM-14
  GI50: 2200 nM
Namalwa
  GI50: 1400 nM
PF382
  GI50: 3200 nM
HEL
  GI50: > 10000 nM
CDK2
  KinomeScan CDK2: 88
EPHB4
  KinomeScan EPHB4: 100
ACVR1B
  KinomeScan ACVR1B: 85
ACVR2B
  KinomeScan ACVR2B: 100
PRP4
  KinomeScan PRP4: 93
HIPK2
  KinomeScan HIPK2: 100
YSK4
  KinomeScan YSK4: 100
CSF1R
  KinomeScan CSF1R: 67
EGFR(L858R)
  KinomeScan EGFR(L858R): 100
CSNK1G3
  KinomeScan CSNK1G3: 96
[5]
  KinomeScan JAK2(JH1domain-catalytic): 96
AKT2
  KinomeScan AKT2: 86
PARP cleavage; MEC-1 cell (CLL)
  PARP cleavage (apoptosis): only weakly
PARP cleavage; MOLM-13 cell (AML), HT cell (B-NHL)
  PARP cleavage (apoptosis): apparent PARP cleavage
BIKE
  KinomeScan BIKE: 73
KIT(V559D,V654A)
  KinomeScan KIT(V559D,V654A): 97
p38-alpha
  KinomeScan p38-alpha: 100
TAOK3
  KinomeScan TAOK3: 93
BTK
  KinomeScan BTK: 81
[6]
  KinomeScan ABL1(F317L)-nonphosphorylated: 100
